Data reported in the supplement of paper PMC9663587.

Tests used:
INK128/MLN0128 = compound: CC(C)n1nc(-c2ccc3oc(N)nc3c2)c2c(N)ncnc21 [INK128/MLN0128]
R0-3306 = compound: C1=CC2=C(C=CC(=C2)C=C3C(=O)NC(=NCC4=CC=CS4)S3)N=C1 [R0-3306]
Neratinib/HKI272 = compound: CCOc1cc2ncc(C#N)c(Nc3ccc(OCc4ccccn4)c(Cl)c3)c2cc1NC(=O)/C=C/CN(C)C [Neratinib/HKI272]
[1] = compound: Cc1nn(C)c(COc2ccc(N3CCN(S(=O)(=O)N(C)C)CC3)cc2)c1-c1cccc2c(CCCOc3cccc4ccccc34)c(C(=O)O)n(CCN3CCOCC3)c12
THZ531 = compound: CN(C)C/C=C/C(=O)Nc1ccc(C(=O)N2CCC[C@@H](Nc3ncc(Cl)c(-c4c[nH]c5ccccc45)n3)C2)cc1 [THZ531]
Rucaparib = compound: CNCc1ccc(-c2[nH]c3cc(F)cc4c3c2CCNC4=O)cc1 [Rucaparib]
ABT-737 = compound: CN(C)CC[C@H](CSc1ccccc1)Nc1ccc(S(=O)(=O)NC(=O)c2ccc(N3CCN(Cc4ccccc4-c4ccc(Cl)cc4)CC3)cc2)cc1[N+](=O)[O-] [ABT-737]
Taselisib/GDC0032 = compound: Cc1nc(-c2cn3c(n2)-c2ccc(-c4cnn(C(C)(C)C(N)=O)c4)cc2OCC3)n(C(C)C)n1 [Taselisib/GDC0032]
AZD1775 = compound: C=CCn1c(=O)c2cnc(Nc3ccc(N4CCN(C)CC4)cc3)nc2n1-c1cccc(C(C)(C)O)n1 [AZD1775]
[2] = compound: CC(=O)Nc1cccc(-n2c(=O)n(C3CC3)c(=O)c3c(Nc4ccc(I)cc4F)n(C)c(=O)c(C)c32)c1
Volasertib/BI6727 = compound: CC[C@@H]1C(=O)N(C)c2cnc(Nc3ccc(C(=O)N[C@H]4CC[C@H](N5CCN(CC6CC6)CC5)CC4)cc3OC)nc2N1C(C)C [Volasertib/BI6727]
Flavopiridol = compound: CN1CC[C@H](c2c(O)cc(O)c3c(=O)cc(-c4ccccc4Cl)oc23)[C@H](O)C1 [Flavopiridol]
Cediranib/AZD2171 = compound: COc1cc2c(Oc3ccc4[nH]c(C)cc4c3F)ncnc2cc1OCCCN1CCCC1 [Cediranib/AZD2171]
Alpelisib/BYL719 = compound: Cc1nc(NC(=O)N2CCC[C@H]2C(N)=O)sc1-c1ccnc(C(C)(C)C(F)(F)F)c1 [Alpelisib/BYL719]
AZD6738 = compound: C[C@@H]1COCCN1c1cc(C2([S@](C)(=N)=O)CC2)nc(-c2cc[nH]c3nccc2-3)n1 [AZD6738]
Doxorubicin = compound: COc1cccc2c1C(=O)c1c(O)c3c(c(O)c1C2=O)C[C@@](O)(C(=O)CO)C[C@@H]3O[C@H]1C[C@H](N)[C@H](O)[C@H](C)O1 [Doxorubicin]
Ipatasertib/GDC0068 = compound: CC(C)NC[C@@H](C(=O)N1CCN(c2ncnc3c2[C@H](C)C[C@H]3O)CC1)c1ccc(Cl)cc1 [Ipatasertib/GDC0068]
Tivantinib/ARQ197 = compound: O=C1NC(=O)[C@@H](c2cn3c4c(cccc24)CCC3)[C@@H]1c1c[nH]c2ccccc12 [Tivantinib/ARQ197]
BVD523 = compound: CC(C)Nc1cc(-c2c[nH]c(C(=O)N[C@H](CO)c3cccc(Cl)c3)c2)c(Cl)cn1 [BVD523]
Dasatinib = compound: Cc1nc(Nc2ncc(C(=O)Nc3c(C)cccc3Cl)s2)cc(N2CCN(CCO)CC2)n1 [Dasatinib]
THZ1 = compound: CN(C)C/C=C/C(=O)Nc1ccc(C(=O)Nc2cccc(Nc3ncc(Cl)c(-c4c[nH]c5ccccc45)n3)c2)cc1 [THZ1]
TGX221 = compound: CC1=CN2C(=O)C=C(N=C2C(=C1)C(C)NC3=CC=CC=C3)N4CCOCC4 [TGX221]
[3] = compound: CNc1nc(-c2ccc3c(N)n[nH]c3c2)cc(N2C[C@@H](C(=O)NC3CCCCC3)CC[C@H]2C)n1
AZD7762 = compound: NC(=O)Nc1cc(-c2cccc(F)c2)sc1C(=O)N[C@H]1CCCNC1 [AZD7762]
[4] = compound: COc1ccc2c(c1)[C@]1(C[C@H]1c1ccc3c(/C=C/c4ccc(CN5C[C@@H](C)O[C@@H](C)C5)cc4)n[nH]c3c1)C(=O)N2
[5] = compound: CO[C@@H](C)Cn1c(=O)n(C)c2cnc3ccc(-c4cncc(C(C)(C)O)c4)cc3c21
[6] = compound: CCC1=CN=CN=C1N2CCN(CC2)CC3=NC4=C(N3)C=C(C=C4)C(F)(F)F
Torin2 = compound: C1=CC(=CC(=C1)N2C(=O)C=CC3=CN=C4C=CC(=CC4=C32)C5=CN=C(C=C5)N)C(F)(F)F [Torin2]
AZD2014 = compound: CNC(=O)c1cccc(-c2ccc3c(N4CCOC[C@@H]4C)nc(N4CCOC[C@@H]4C)nc3n2)c1 [AZD2014]
LEE011/Ribociclib = compound: CN(C)C(=O)c1cc2cnc(Nc3ccc(N4CCNCC4)cn3)nc2n1C1CCCC1 [LEE011/Ribociclib]
[7] = compound: CC(=O)c1c(C)c2cnc(Nc3ccc(N4CCNCC4)cn3)nc2n(C2CCCC2)c1=O
Olaparib/AZD2281 = compound: O=C(c1cc(Cc2n[nH]c(=O)c3ccccc23)ccc1F)N1CCN(C(=O)C2CC2)CC1 [Olaparib/AZD2281]
Pictilisib/GDC0941 = compound: CS(=O)(=O)N1CCN(Cc2cc3nc(-c4cccc5[nH]ncc45)nc(N4CCOCC4)c3s2)CC1 [Pictilisib/GDC0941]
senexin b = compound: CN1CCN(C(=O)c2ccc3cc(CCNc4ncnc5ccc(C#N)cc45)ccc3c2)CC1 [senexin b]
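Further: breast cancer and non-malignant breast epithelial cell lines, Deep Dye Drop or Dye Drop imaging, nine half-log doses, GR normalized to time-zero plates and DMSO-only controls.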

Cell Line | GR50, 72 h (INK128/MLN0128) [µM] | GR50, 72 h (R0-3306) [µM] | GR50, 72 h (Neratinib/HKI272) [µM] | GR50, 72 h [1] [µM] | GR50, 72 h (THZ531) [µM] | GR50, 72 h (Rucaparib) [µM] | GR50, 72 h (ABT-737) [µM] | GR50, 72 h (Taselisib/GDC0032) [µM] | GR50, 72 h (AZD1775) [µM] | GR50, 72 h [2] [µM] | GR50, 72 h (Volasertib/BI6727) [µM] | GR50, 72 h (Flavopiridol) [µM] | GR50, 72 h (Cediranib/AZD2171) [µM] | GR50, 72 h (Alpelisib/BYL719) [µM] | GR50, 72 h (AZD6738) [µM] | GR50, 72 h (Doxorubicin) [µM] | GR50, 72 h (Ipatasertib/GDC0068) [µM] | GR50, 72 h (Tivantinib/ARQ197) [µM] | GR50, 72 h (BVD523) [µM] | GR50, 72 h (Dasatinib) [µM] | GR50, 72 h (THZ1) [µM] | GR50, 72 h (TGX221) [µM] | GR50, 72 h [3] [µM] | GR50, 72 h (AZD7762) [µM] | GR50, 72 h [4] [µM] | GR50, 72 h [5] [µM] | GR50, 72 h [6] [µM] | GR50, 72 h (Torin2) [µM] | GR50, 72 h (AZD2014) [µM] | GR50, 72 h (LEE011/Ribociclib) [µM] | GR50, 72 h [7] [µM] | GR50, 72 h (Olaparib/AZD2281) [µM] | GR50, 72 h (Pictilisib/GDC0941) [µM] | GR50, 72 h (senexin b) [µM]
MDAMB330 | 0.00601 | 7.54 | 0.00221 | > 10 | 0.0247 | 8.69 | 2.07 | 0.00814 | 0.0535 | 0.138 | 0.0032 | 0.232 | 4.86 | 1.2 | 8.42 | 0.00368 | 0.38 | 0.661 | 7.45 | > 10 | 0.00836 | > 10 | 0.279 | 0.0449 | 0.00542 | < 0.001 | > 10 | 0.00492 | < 0.001 | < 0.001 | 0.0198 | 9.31 | 0.293 | –
MDAMB361 | 0.00362 | 5.8 | 0.152 | > 10 | 0.0273 | – | > 10 | 0.00177 | 0.00493 | > 1 | 0.00352 | 0.0887 | 2.22 | 0.223 | 4.79 | 0.0123 | 0.314 | 0.342 | 0.476 | 0.268 | 0.00852 | > 10 | 0.0407 | 0.00768 | 0.00573 | < 0.001 | 7.23 | 0.00507 | < 0.001 | < 0.001 | 0.0196 | 4.83 | 0.0792 | 1.62
PDX1328 | 0.00569 | – | 0.264 | > 10 | 0.0399 | > 10 | 1.56 | 0.0544 | 0.00554 | > 1 | 0.00437 | 0.181 | 4.04 | 1.57 | – | 0.024 | > 10 | 0.239 | > 10 | 0.0279 | 0.0106 | > 10 | > 10 | 0.0284 | 0.00595 | 0.00195 | > 10 | 0.00494 | – | 0.349 | 0.168 | > 10 | 0.878 | > 10
SUM185PE | 0.00558 | > 10 | 0.537 | > 10 | 0.136 | > 10 | 0.927 | 0.00177 | 4.52 | > 1 | 0.0238 | 0.149 | 0.0358 | 0.318 | > 10 | > 3.16 | 6.34 | 0.784 | > 10 | 0.0196 | 0.0143 | > 10 | > 10 | 0.0985 | – | 0.00357 | 3.03 | 0.0124 | 0.00637 | > 10 | > 3.16 | > 10 | 0.127 | –
SUM190PT | 0.0134 | 4.76 | 1.88 | 6.86 | 0.0528 | > 10 | 0.362 | 0.962 | 0.0515 | > 1 | 0.0086 | 0.0802 | > 10 | > 10 | 4.09 | 0.025 | > 10 | 0.0433 | 3.33 | 0.212 | 0.00565 | > 10 | 2.22 | 0.0612 | 0.00062 | < 0.001 | 9.17 | 0.00524 | 0.00932 | 0.0246 | 0.0436 | > 10 | 3.1 | –
SUM1315 | 0.00659 | 2.79 | 0.0922 | > 10 | 0.388 | – | 5.96 | 0.516 | < 0.001 | 0.0211 | 0.0095 | 0.104 | 1.47 | 6.46 | 4.46 | 0.0182 | > 10 | 0.37 | 6 | 0.0191 | 0.251 | > 10 | 3.85 | 0.0527 | 0.00184 | 0.00919 | > 10 | 0.015 | 0.0012 | 2.83 | 0.0923 | 2.03 | 0.511 | > 10
UACC812 | 0.0021 | 5.09 | 0.00313 | > 10 | > 1 | > 10 | 3.73 | 0.0622 | 3.03 | 0.00179 | 0.00975 | 0.0813 | 1.04 | 0.588 | 5.82 | 0.00203 | 1.02 | 0.175 | 1.32 | 0.00102 | 0.691 | 0.0345 | 0.884 | 0.00748 | 0.0127 | < 0.001 | 2.01 | 0.00356 | < 0.001 | 0.0124 | 0.0179 | 8.69 | 0.106 | –
